Patent publication US12649765B2 (Arizona Board of Regents on Behalf of the University of …, priority 2020, dated 2026)
Entries after “also recorded” stand apart in the source; their conditions may differ. Where a SMILES comes first, the peptide text is derived from it. Bridges are numbered along the chain shown (N, C = ends). [ ]: non-standard residue; d: D form. The star is where a group is joined. X1 = OC[C@H]1OC(*)[C@H](O)[C@@H](O)[C@@H]1O; Dap = NC[C@H](N)C(=O)O

Key:
[1] = molecular target: OTR (Homo sapiens, UniProt P30559); experiment: EC50 (nM) | OTR
Description: Table printed on a drawing sheet, FIG. 6
The patent's description of the figure: FIG. 6 is a table showing EC50 for OXTR agonistic activity for some of the representative cyclic oligopeptides of the invention.
First copying reader's note: Each value cell holds the EC50 together with its ± error; NA is not defined on the sheet.

[2] = molecular target: human Mu Opioid Receptor (MOR) (Homo sapiens, UniProt P35372); experiment: biochemical; type: binding
[3] = 52° C. warm water tail flick assay, icv injection; type: in vivo; settings: 10 nmol icv, male and female CD-1 mice
[4] = 52° C. warm water tail flick assay, iv injection; type: in vivo, CD-1 mice; settings: 10 mg/kg iv; for anti-nociception in tail flick assay: 10 second cutoff, male and female CD-1 mice
[5] = Paclitaxel-induced CIPN, Von Frey filaments mechanical threshold, icv injection; type: in vivo, CD-1 mice; settings: 10 nmol icv on day 8, 2 mg/kg paclitaxel on days 1, 3, 5, 7

Sequence of human Mu Opioid Receptor (MOR) (P35372 whole entry): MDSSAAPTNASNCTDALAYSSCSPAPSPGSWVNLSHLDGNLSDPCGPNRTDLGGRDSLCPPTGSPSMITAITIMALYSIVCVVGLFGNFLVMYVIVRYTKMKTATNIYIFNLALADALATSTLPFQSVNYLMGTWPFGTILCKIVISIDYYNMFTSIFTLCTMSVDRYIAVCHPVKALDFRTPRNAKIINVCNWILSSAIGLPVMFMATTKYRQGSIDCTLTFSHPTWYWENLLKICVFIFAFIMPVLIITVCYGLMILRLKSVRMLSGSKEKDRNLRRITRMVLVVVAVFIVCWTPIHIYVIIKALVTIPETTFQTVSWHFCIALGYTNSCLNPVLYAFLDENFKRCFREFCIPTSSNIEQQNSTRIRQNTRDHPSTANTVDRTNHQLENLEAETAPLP
Sequence of OTR (P30559 whole entry, looked up): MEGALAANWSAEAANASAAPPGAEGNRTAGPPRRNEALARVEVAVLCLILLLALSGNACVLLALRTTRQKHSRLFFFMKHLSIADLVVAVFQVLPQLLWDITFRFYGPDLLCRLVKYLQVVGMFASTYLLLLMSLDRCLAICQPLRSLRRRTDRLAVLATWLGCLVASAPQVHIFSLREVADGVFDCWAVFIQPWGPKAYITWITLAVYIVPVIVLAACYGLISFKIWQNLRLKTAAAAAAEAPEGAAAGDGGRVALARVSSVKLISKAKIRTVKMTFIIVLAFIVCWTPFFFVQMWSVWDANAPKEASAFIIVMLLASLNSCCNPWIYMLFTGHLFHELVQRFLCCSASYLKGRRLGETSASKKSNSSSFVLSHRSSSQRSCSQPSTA

Compound	EC50 [1]	IC50 [2]	Ki [2]	anti-nociception in tail flick assay [3]	anti-nociception in tail flick assay [4]	anti-nociception in tail flick assay ([4]; listed as Native OT)	anti-nociception in CIPN model (mechanical threshold) [5]	peak effect in tail flick assay [4]
CC[C@H](C)[C@@H]1NC(=O)[C@H](Cc2ccc(O)cc2)NC(=O)[C@@H](N)CCC(=O)NC[C@@H](C(=O)N2CCC[C@H]2C(=O)N[C@@H](CC(C)C)C(=O)NCC(N)=O)NC(=O)[C@H](CC(N)=O)NC(=O)[C@H](CCC(N)=O)NC1=O [2LS118-2, Glu-Tyr-Ile-Gln-Asn-Dap-Pro-Leu-Gly-CONH2 (SEQ ID NO: 6)] (H-EYIQN[Dap]PLG-NH2; lactam 1-6)	7040 ± 2960 nM	> 2500 nM	> 2500 nM					
CC[C@H](C)[C@@H]1NC(=O)[C@H](Cc2ccc(O)cc2)NC(=O)[C@@H](N)CNC(=O)C[C@@H](C(=O)N2CCC[C@H]2C(=O)N[C@@H](CC(C)C)C(=O)NCC(N)=O)NC(=O)[C@H](CC(N)=O)NC(=O)[C@H](CCC(N)=O)NC1=O [2LS118-3, Dap-Tyr-Ile-Gln-Asn-Asp-Pro-Leu-Gly-CONH2 (SEQ ID NO: 7)] (H-[Dap]YIQNDPLG-NH2; lactam 1-6)		> 2500 nM	> 2500 nM					
CC[C@H](C)[C@@H]1NC(=O)[C@H](Cc2ccc(O)cc2)NC(=O)[C@@H](N)CSSC[C@@H](C(=O)N2CCC[C@H]2C(=O)N[C@@H](CC(C)C)C(=O)NCC(N)=O)NC(=O)[C@H](CC(N)=O)NC(=O)[C@H](CCC(N)=O)NC1=O [native OT, Cys-Tyr-Ile-Gln-Asn-Cys-Pro-Leu-Gly-CONH2 (SEQ ID NO: 1), reference compound]				the same degree and duration of anti-nociceptive activity; also recorded: substantially equivalent anti-nociception	no anti-nociception; also recorded: no efficacy	no effect		
CC[C@H](C)[C@@H]1NC(=O)[C@H](Cc2ccc(O)cc2)NC(=O)[C@@H](N)CC(=O)NC[C@@H](C(=O)N2CCC[C@H]2C(=O)N[C@@H](CC(C)C)C(=O)N[C@@H](COC2O[C@H](CO)[C@@H](O)[C@H](O)[C@H]2O)C(N)=O)NC(=O)[C@H](CC(N)=O)NC(=O)[C@H](CCC(N)=O)NC1=O (stereo partly drawn) [2LS118-4, Asp-Tyr-Ile-Gln-Asn-Dap-Pro-Leu-SerGlc-CONH2 (SEQ ID NO: 8)] (H-DYIQN[Dap]PLS(X1)-NH2; lactam 1-6; N-terminus assumed)				the same degree and duration of anti-nociceptive activity; also recorded: substantially equivalent anti-nociception	near-maximal efficacy comparable to 10 mg/kg morphine; also recorded: almost half to full maximal efficacy vs. morphine		high anti-nociceptive efficacy; also recorded: substantially equivalent anti-nociception	significantly higher peak effect than 2LS118-1
CC[C@H](C)[C@@H]1NC(=O)[C@H](Cc2ccc(O)cc2)NC(=O)[C@@H](N)CC(=O)NC[C@@H](C(=O)N2CCC[C@H]2C(=O)N[C@@H](CC(C)C)C(=O)NCC(N)=O)NC(=O)[C@H](CC(N)=O)NC(=O)[C@H](CCC(N)=O)NC1=O [2LS118-1, Asp-Tyr-Ile-Gln-Asn-Dap-Pro-Leu-Gly-CONH2 (SEQ ID NO: 5)] (H-DYIQN[Dap]PLG-NH2; lactam 1-6)	3760 ± 3120 nM	> 2500 nM	> 2500 nM					
